Measured values reported in article PMC11851433, “Novel Quinazoline Derivatives Inhibit Splicing of Fungal Group II Introns” (ACS Chemical Biology, 2025).
Values after ≈ are worked out from the molar mass of the structure shown. Read-outs that look alike come from different tables or passages of the source. Blank lines part the entries; values can stand above or below the compound they belong to.

Key:
HEK-293T cells = test: Cytotoxicity in HEK-293T cells (Cell Titer Glo); assay type: cell-based; conditions: Homo sapiens, read-out: IC50 for cell growth inhibition
Method: For the cytotoxicity experiments, cells were aliquoted into black 96-well plates with a clear bottom (Corning 3603), grown, treated with the inhibitors, and subjected to the Cell Titer Glo cell viability assay (Promega) as previously described.[33] All experiments were performed in triplicate.

D135 ribozyme = test: HTS / dose–response intron activity assay (fluorescently labeled substrate, D135 ribozyme); assay type: biochemical, Saccharomyces cerevisiae; conditions: 10 concentrations, highest 100 μM, 1:3 serial dilution
Method: The RNA oligonucleotide substrate for HTS, containing the last 17 nucleotides of the native 5′-exon and the first two nucleotides of the ai5γ intron,[33] was synthesized on a MerMade 12 RNA-DNA synthesizer (BioAutomation) using TBDMS RNA phosphoramidites (TxBio), aminomodifier C6dT, and Black Hole Quencher 2 CPG (Glen Research). For base deprotection, the oligonucleotide was treated with 30% ammonium hydroxide (JT Baker) for 24 h at RT. The 2’–OH deprotection and oligonucleotide purification were carried out as described.[57],[58] Fluorescent labeling of the substrate with the NHS ester of AlexaFluor 555 was carried out as described.[33]
HTS was carried out by CRL using the fluorescently labeled substrate, unlabeled D135 ribozyme (see above), and a proprietary library of ∼1,50,000 compounds using assay conditions previously described,[33] with the following adaptations. The D135 ribozyme (20 nM final concentration) was first prefolded in a buffer of 50 mM MOPS, pH 7.5, 50 mM MgCl2, and 500 mM KCl at 37 °C for 30 min. Library compounds were then added at 12.5 μM final concentration followed by addition of the substrate (to 15 nM final concentration), and the reaction mixtures were incubated at 37 °C for 40 min. Reactions were was quenched by addition of urea (2.67 M final) and analyzed as described. […]

ai5γ group II intron [1] = test: Radioanalytic in vitro splicing assay, splicing inhibition constants; assay type: biochemical, Saccharomyces cerevisiae; conditions: for improvement of inhibitory activity (Ki) relative to compound 3: vs compound 3
Method: Internally ^32P-labeled ai5γ intron RNA with short exons[54] was in vitro transcribed in the presence of ^32P-α-UTP using T7 RNA polymerase and purified on a 5% denaturing polyacrylamide gel as described.[55] Large-scale transcription of the […] ribozyme, utilized for HTS, was carried out as previously described.[56] Splicing inhibition constants were determined as previously described[33],[34] with the following change in the experimental procedure: reactions were carried out in a buffer of 50 mM MOPS pH 7.5, 100 mM MgCl2, and 500 mM KCl at 42 °C. Aliquots of the reaction mixture were withdrawn at different time points, quenched, and analyzed on a 5% denaturing polyacrylamide gel as previously described.[55] Inhibition constants were determined as previously described.[33],[34] Experiments were performed twice to ensure reproducibility. Data represent average ± s.e.m.

C. parapsilosis = test: MIC determination for C. parapsilosis (CLSI M27-A3); assay type: cell-based, Candida parapsilosis; conditions: for MIC C. parapsilosis: Supplementary table 1; for MIC: Lodderomyces parapsilosis
Method: C. parapsilosis [strain American Type Culture Collection (ATCC) 22019] was purchased from ATCC and cultured according to the manufacturer’s instructions. S. cerevisiae wild-type (NP40-36a) and mtDNA intronless (XPM46) strains were a gift from Dr. Thomas Fox (Dept. of Molecular Biology and Genetics, Cornell University).[44] MICs for C. parapsilosis were determined as previously described[33] according to the guidelines from the protocol M27-A3 from the Clinical and Laboratory Standards Institute (CLSI).[59] All experiments were performed in triplicate.

WT S. cerevisiae strain = test: Inhibition of S. cerevisiae growth, WT strain; assay type: cell-based, Saccharomyces cerevisiae
Method: (§1) C. parapsilosis [strain American Type Culture Collection (ATCC) 22019] was purchased from ATCC and cultured according to the manufacturer’s instructions. S. cerevisiae wild-type (NP40-36a) and mtDNA intronless (XPM46) strains were a gift from Dr. Thomas Fox (Dept. of Molecular Biology and Genetics, Cornell University).[44]
(§2) Reduction of yeast growth in the presence of inhibitor molecules was assayed either in liquid YPD media (BD Bacto Yeast Extract, BD Bacto Peptone, 2% glucose) or in YPG media (BD Bacto Yeast Extract, BD Bacto Peptone, 3% glycerol), as previously described[33],[34],[59] with the following adaptations. Yeast cultures were grown for 24 h in YPD medium and for […] in YPG medium. All experiments were performed in triplicate to ensure reproducibility.

[2] = tested on: COX1 intronless S. cerevisiae strain; test: Inhibition of S. cerevisiae growth, COX1 intronless strain; assay type: cell-based, Saccharomyces cerevisiae
Method: as §1, §2

[3] = tested on: C. parapsilosis COX1 precursor mRNA splicing; test: In cellulo analysis of group II intron splicing by qRT-PCR; assay type: cell-based, Candida parapsilosis; conditions: compound 64 μg/mL, PGK1 as standard
Method: C. parapsilosis (ATCC: 22019) growth and harvest was performed essentially as described[33] with the following modifications. Compounds dissolved in DMSO were added to individual cultures to a final concentration of 64 μg/mL. Total RNA was isolated using an E.Z.N.A Fungal RNA Mini Kit (Omega Bio-tek) according to the manufacturer’s protocol. The RNA was eluted in 50 μL of a 1:100 mixture of SUPERaseIn RNase inhibitor (Thermo Fisher): MOPS-EDTA (ME) buffer [10 mM MOPS (pH 6.5), 0.1 mM Na-EDTA (pH 8.5)] followed by DNase treatment with RQ1 DNase (Promega) for 30 min at 37 °C. Then, the reaction was mixed with 7 μL of 3 M NaOAc and precipitated with 80% EtOH at –20 °C. The recovered RNA was resuspended in 30 μL of 1:100 mixture of SUPERaseIn RNase inhibitor/ME buffer. Next, 200 ng of Random Hexamer Primers (Thermo Fisher) was annealed to 10 ng of RNA in 11 μL at 65 °C for 5 min. The annealing reaction mixture was then cooled to RT, followed by the addition of 9 μL of a SuperScript III (Thermo Fisher) master mix: 1X First Strand Synthesis Buffer, 0.5 mM dNTPs (NEB: N0447S), 5 mM DTT, 10U SUPERaseIn RNase inhibitor, and 100 U SuperScript III. Manufacturer reverse transcription conditions were used, followed by an inactivation step at 75 °C for 15 min. After reverse transcription, RNA was degraded by adding 1.5 μL of a 1:1:1 mixture of RNase H (NEB), RNase A (NEB), and RNase T1 (Thermo Fisher) and incubating at 37 °C for 30 min. The cDNA was then purified using AMPure beads (Beckman Coulter) at a 1.8× bead-to-sample ratio according to the manufacturer’s protocol. Purified cDNA was eluted in 30 μL of nuclease-free water. Real-time PCR quantification of cDNA and subsequent determination of the relative levels of PGK1, COX1 (total), and COX1 (unspliced) from different conditions were performed in duplicate with three independent samples as previously described.[33]

ai5γ group II intron [4] = biological target: ai5γ group II intron; parameters: method as in PMID 30323219; conditions: for comparison; read-out: Ki of previously published inhibitors; cited from earlier work
[5] = tested on: C. parapsilosis COX1 precursor mRNA splicing; parameters: method as in PMID 30323219; conditions: for comparison; cited from earlier work
[6] = Figure 3, 100 mM MgCl2, 500 mM KCl, 42 °C, read-out: Ki for the in vitro splicing of the ai5γ intron
[7] = Supplementary table 1, read-out: Ki ai5γ intron

SMILES: C[C@@H]1[C@H](O)[C@@H](C)/C=C/C=C/C=C/C=C/C=C/C=C/C=C/[C@H](O[C@@H]2O[C@H](C)[C@@H](O)[C@H](N)[C@@H]2O)C[C@@H]2O[C@](O)(C[C@@H](O)C[C@@H](O)[C@H](O)CC[C@@H](O)C[C@@H](O)CC(=O)O[C@H]1C)C[C@H](O)[C@H]2C(=O)O [amphotericin B, reference compound]
IC50 (HEK-293T cells): 2.6 ± 0.2 µg/mL (≈ 2.81 µM)

SMILES: c1ccc(CNc2nc(-c3ccccn3)nc3ccccc23)cc1 [compound 3]
Ki (ai5γ group II intron [1]; [7]): 77 ± 25 µM

SMILES: COc1ccc(Nc2ncnc3ccccc23)cc1 [compound 4]
Ki (ai5γ group II intron [1]; [7]): > 100 µM

SMILES: COc1cccc(CNc2ncnc3ccccc23)c1 [compound 5]
Ki (ai5γ group II intron [1]; [7]): > 100 µM | MIC C. parapsilosis (C. parapsilosis): 16 µg/mL (≈ 60.3 µM)

SMILES: c1ccc(CNc2ncnc3ccccc23)cc1 [compound 7]
Ki (ai5γ group II intron [1]; [7]): > 100 µM

SMILES: c1ccc(-c2ncc3ccccc3n2)nc1 [compound 9]
Ki (ai5γ group II intron [1]; [7]): > 100 µM

SMILES: CC(C)(C)c1ccc(Nc2nc(-c3ccncc3)nc3ccccc23)cc1 [compound 11]
inhibitory activity in the splicing assay (in words) (ai5γ group II intron [1]): completely abolishes activity | Ki (ai5γ group II intron [1]; [7]): > 100 µM

SMILES: c1ccc(-c2nc(Nc3ccc4c(c3)OCO4)c3ccccc3n2)nc1 [compound 12]
Ki (ai5γ group II intron [1]; [7]): 11 ± 2 µM | increase in inhibitory activity relative to compound 1 (ai5γ group II intron [1]; vs compound 1): 3 fold

SMILES: c1ccc(-c2nc(N3Cc4ccccc4C3)c3ccccc3n2)nc1 [compound 14]
Ki (ai5γ group II intron [1]; [7]): 7.6 ± 1.7 µM | growth inhibition of WT vs COX1 intronless S. cerevisiae strain (WT S. cerevisiae strain; WT more strongly inhibited than intronless strain): eight-fold | MIC S. cerevisiae WT strain (WT S. cerevisiae strain; WT strain): 4 µg/mL (≈ 12.3 µM) | MIC S. cerevisiae intronless strain [2]: 32 µg/mL (≈ 98.6 µM)

SMILES: CC(C)(C)c1cccc(CNc2nc(-c3ccccn3)nc3ccccc23)c1 [compound 15]
Ki (ai5γ group II intron [1]; [7]): 6.4 ± 1.9 µM | improvement of inhibitory activity (Ki) relative to compound 3 (ai5γ group II intron [1]): more than 10 fold

SMILES: FC(F)(F)c1cccc(CNc2nc(-c3ccccn3)nc3ccccc23)c1 [compound 16]
Ki (ai5γ group II intron [1]; [7]): 5.6 ± 0.6 µM | improvement of inhibitory activity (Ki) relative to compound 3 (ai5γ group II intron [1]): more than 10 fold | MIC in C. parapsilosis (C. parapsilosis): 4 µg/mL (≈ 10.5 µM) | MIC (C. parapsilosis): 2 to 8 µg/mL (≈ 5.26 to 21 µM) | MIC (WT S. cerevisiae strain; Saccharomyces cerevisiae): 16 µg/mL (≈ 42.1 µM) | MIC ([2]; Saccharomyces cerevisiae): 64 µg/mL (≈ 168 µM) | effect on splicing of C. parapsilosis COX1 (unspliced relative to total COX1 mRNA) [3]: moderate defects | IC50 (HEK-293T cells): 5.6 ± 0.1 µg/mL (≈ 14.7 µM)

SMILES: Clc1cccc(CNc2nc(-c3ccccn3)nc3ccccc23)c1 [compound 17]
Ki (ai5γ group II intron [1]; [7]): 2.6 ± 0.5 µM | improvement of inhibitory activity (Ki) relative to compound 3 (ai5γ group II intron [1]): 30 fold | MIC in C. parapsilosis (C. parapsilosis): 2 µg/mL (≈ 5.77 µM) | MIC (C. parapsilosis): 2 to 8 µg/mL (≈ 5.77 to 23.1 µM) | effect on splicing of C. parapsilosis COX1 (unspliced relative to total COX1 mRNA) [3]: moderate defects | IC50 (HEK-293T cells): 3.9 ± 0.1 µg/mL (≈ 11.2 µM)

SMILES: FC(F)(F)c1cccc(CNc2nc(-c3ccccn3)nc3cc(Cl)ccc23)c1 [compound 18]
Ki (ai5γ group II intron [1]; [7]): 20 ± 6 µM | drop in inhibitory activity relative to compound 16 (ai5γ group II intron [1]; vs compound 16): four-fold

SMILES: CC(=O)c1ccc(-c2ccc3oc(C(=O)c4cc(O)c(O)c(O)c4)cc3c2)cc1 [intronistat A]
Ki (ai5γ group II intron [4]): 2.1 ± 0.2 µM

SMILES: O=C(NCCN1CCCC1)c1ccc2oc(C(=O)c3cc(O)c(O)c(O)c3)cc2c1 [intronistat B]
Ki (ai5γ group II intron [4]): 0.36 ± 0.02 µM | levels of unspliced vs total C. parapsilosis COX1 transcripts [5]: 1.5 fold

The next lines start with results.

IC50 (D135 ribozyme): 3 µM | Ki (ai5γ group II intron [1]; [6]): 27 ± 6 µM
SMILES: COc1ccc(Nc2nc(-c3ccccn3)nc3ccccc23)cc1 [compound 1]

Ki (ai5γ group II intron [1]; [7]): 55 ± 19 µM | MIC C. parapsilosis (C. parapsilosis): > 128 µg/mL
SMILES: COc1cccc(CNc2nc(-c3ccccn3)nc3ccccc23)c1 [compound 2]

Ki (ai5γ group II intron [1]; [7]): > 100 µM
SMILES: c1ccc(Nc2ncnc3ccccc23)cc1 [compound 6]

Ki (ai5γ group II intron [1]; [7]): > 100 µM
SMILES: Nc1nc(-c2ccccn2)nc2ccccc12 [compound 8]

Ki (ai5γ group II intron [1]; [7]): 11 ± 2 µM | MIC (C. parapsilosis): 2 to 8 µg/mL (≈ 5.64 to 22.6 µM)
SMILES: CC(C)(C)c1ccc(Nc2nc(-c3ccccn3)nc3ccccc23)cc1 [compound 10]

Ki (ai5γ group II intron [1]; [6]): 1.4 ± 0.4 µM
SMILES: Clc1cccc(CNc2nc(-c3ccccn3)nc3cc(Cl)ccc23)c1 [compound 19]
effect on splicing of C. parapsilosis COX1 (unspliced relative to total COX1 mRNA) [3]: remained unchanged
